Values after ≈ are worked out from the molar mass of the structure shown.
What was measured:
[1] = DNDI: Solubility in phosphate buffered saline at pH7.4 measured by nephelometry at room temperature (NEPH-RT); format: physicochemical; settings: pH 7.4
[2] = DNDI: Cytotoxicity against L929 mouse fibroblasts, 72 hour.; format: toxicity, cell-based; settings: mouse, L929 mouse fibroblasts
[3] = DNDI: Lipophilicity measured in Chromatographic hydrophobicity index (CHI) assay, pH 7.4; format: physicochemical; settings: buffer
[4] = system: Trypanosoma brucei; assay: DNDI: Inhibition of Human African Trypanosomiasis, SBRI 427, in vitro; format: functional, organism-based; settings: Trypanosoma brucei, SBRI 427; read-out: IC50
[5] = in vitro; settings: mouse, liver microsomes, t (1 / 2)
Description: DNDI: half life in mouse liver microsomes at a concentration of 1uM

[6] = mouse, microsomes, 1 µM
Description: DNDI: in vitro intrinsic clearance in mouse liver microsomes at a concentration of 1uM

[7] = DNDI: Cytotoxicity against L929 mouse fibroblasts, CYTO-SP, 24 hour; format: toxicity, cell-based; settings: mouse, L929 mouse fibroblasts

SMILES | solubility kinetic [1] | chromatographic logD [3] | IC50 [4] | half-life at 1 µM [5] | CLint in vitro [6] | IC50 at 72 h [2] | IC50 at 24 h [7]
COc1ccc(C(=O)OC2=CC(=O)N(C)C2)cc1 | > 200 µM | 2.72 | > 5 µg/mL |  |  | > 10 µg/mL | 
O/N=C(/NC1CCCCC1)c1cccnc1Oc1ccc(F)cc1 |  |  | 1.4 µg/mL (≈ 4.25 µM) | 2 min | 389 µL/min/mg | > 10 µg/mL | 
CCCCCC(C)NCc1coc(-c2cc(OC)cc(OC)c2)n1 (stereo not given) | 6 µM (≈ 1.99 µg/mL) |  | 1.25 µg/mL (≈ 3.76 µM) |  |  | 4.75 µg/mL (≈ 14.3 µM) | 
CCCCCC(C)NCc1coc(-c2ccc(Oc3ccc(F)cc3)cc2)n1 (stereo not given) |  |  | 0.44 µg/mL (≈ 1.15 µM) | 63 min | 13 µL/min/mg | 1.63 µg/mL (≈ 4.26 µM) | 
Cc1cccc(CNC(c2ccccc2)c2nc(Cc3ccccc3)c(N3CCOCC3)o2)c1 (stereo not given) |  |  | 5 µg/mL (≈ 11 µM) | 4 min | 217 µL/min/mg | > 10 µg/mL | 
CCCCc1ccc(-c2nc(CN3CCN(C)CC3)co2)cc1 |  |  | 2.22 µg/mL (≈ 7.08 µM) | 27 min | 31 µL/min/mg | 3.75 µg/mL (≈ 12 µM) | 
CCCCc1ccc(-c2nc(CNCC)co2)cc1 |  |  | 0.89 µg/mL (≈ 3.44 µM) | 11 min | 76 µL/min/mg | 5.42 µg/mL (≈ 21 µM) | 
Cc1cccc(C)c1/C(=N/O)NC1CCCCC1 |  |  | > 5 µg/mL | 11 min | 76 µL/min/mg |  | > 50 µg/mL
CCCCCC(C)NCc1coc(-c2ccc(OC3CCC3)cc2)n1 (stereo not given) |  |  | 0.88 µg/mL (≈ 2.57 µM) | 98 min | 9 µL/min/mg | 2.36 µg/mL (≈ 6.89 µM) | 
COc1ccccc1CNC(c1nc(-c2ccccc2)c(N2CCOCC2)o1)C1CC1 (stereo not given) |  |  | 5 µg/mL (≈ 11.9 µM) | 3 min | 300 µL/min/mg | > 10 µg/mL | 
CC(C)(C)c1ccc(Oc2ncccc2/C(=N/O)NC2CCCCC2)cc1 | 13 µM (≈ 4.78 µg/mL) |  | 0.07 µg/mL (≈ 0.19 µM) | 9 min | 95 µL/min/mg | > 10 µg/mL | 
CCCCCC(C)NCc1coc(Cc2ccc(OC)cc2)n1 (stereo not given) |  |  | 3.24 µg/mL (≈ 10.2 µM) | 16 min | 55 µL/min/mg | 10 µg/mL (≈ 31.6 µM) | 
CCCCCC(C)NCc1coc(-c2ccc(OCc3ccc(C)cc3)cc2)n1 (stereo not given) |  |  | 0.31 µg/mL (≈ 0.79 µM) | 64 min | 13 µL/min/mg | 1.27 µg/mL (≈ 3.24 µM) | 
Cc1ccc(CNC(c2nc(-c3ccccc3)c(N3CCCCC3)o2)C2CC2)cc1 (stereo not given) | 3 µM (≈ 1.2 µg/mL) | > 5.2 | 4.56 µg/mL (≈ 11.4 µM) |  |  | > 10 µg/mL | 
CCCCCOc1ccc(-c2nc(CNC3CCCCCC3)co2)cc1 |  |  | 0.25 µg/mL (≈ 0.701 µM) | 101 min | 8 µL/min/mg | < 3.13 µg/mL | 29.5 µg/mL (≈ 82.8 µM)

Continued, in another order:

solubility kinetic [1] | chromatographic logD [3] | IC50 [4] | half-life at 1 µM [5] | CLint in vitro [6] | SMILES | IC50 at 72 h [2] | IC50 at 24 h [7]
 |  | 0.32 µg/mL (≈ 0.813 µM) | 26.8 min | 31.75 µL/min/mg | Cc1ccc(/C(=N/O)Nc2cccc(F)c2)c(Oc2ccc(C(C)(C)C)cc2)n1 | 5.39 µg/mL (≈ 13.7 µM) | 
 |  | > 5 µg/mL | 3 min | 280 µL/min/mg | O/N=C(\NC1CCCCC1)c1ccc(-c2ccccc2)cc1 |  | 36 µg/mL (≈ 122 µM)
3 µM (≈ 1.38 µg/mL) |  | 2.45 µg/mL (≈ 5.33 µM) | 4 min | 236 µL/min/mg | Cc1ccc(CNC(c2nc(Cc3ccccc3)c(N3CCOCC3)o2)C2CCCCC2)cc1 (stereo not given) | > 10 µg/mL | 
 |  | 0.3 µg/mL (≈ 0.793 µM) | 70 min | 12 µL/min/mg | CCCCCC(C)NCc1coc(-c2ccc(Oc3ccc(C)cc3)cc2)n1 (stereo not given) | 1.42 µg/mL (≈ 3.75 µM) | 
 |  | > 5 µg/mL | 353 min | 2 µL/min/mg | CCc1ccc(Oc2ncccc2/C(=N\O)NC2CCCC[C@H]2N)cc1 (stereo not given in full) | > 10 µg/mL | 
6 µM (≈ 2.6 µg/mL) |  | 2.61 µg/mL (≈ 6.02 µM) | 2 min | 378 µL/min/mg | CCC(C)C(NCc1ccc(C)cc1)c1nc(Cc2ccccc2)c(N2CCOCC2)o1 (stereo not given) | > 10 µg/mL | 
 |  | 0.3 µg/mL (≈ 0.76 µM) | 32 min | 27 µL/min/mg | CCCCCOc1ccc(-c2nc(CNC3[C@H]4C[C@@H]5C[C@@H](C[C@H]3C5)C4)co2)cc1 (stereo not given in full) | < 3.13 µg/mL | > 50 µg/mL
 |  | 0.49 µg/mL (≈ 1.33 µM) | 28 min | 30 µL/min/mg | CCCOc1ccc(-c2nc(CN[C@@H]3C[C@@H]4C[C@H]([C@H]3C)C4(C)C)co2)cc1 | < 3.13 µg/mL | 15.7 µg/mL (≈ 42.7 µM)
3 µM (≈ 1.25 µg/mL) | 4.79 | 1.02 µg/mL (≈ 2.45 µM) |  |  | Fc1cccc(-c2cc3nc(-c4ccccc4)cc(NCCCN4CCCC4)n3n2)c1 | 2.49 µg/mL (≈ 5.99 µM) | 
 |  | 1.17 µg/mL (≈ 3.63 µM) | 3 min | 318 µL/min/mg | Cc1ccc(Cc2ccccc2/C(=N/O)NC2CCCCC2)cc1 | 3.48 µg/mL (≈ 10.8 µM) | 
6 µM (≈ 2.15 µg/mL) |  | 0.19 µg/mL (≈ 0.53 µM) | 70 min | 12 µL/min/mg | CCCCCC(C)NCc1coc(-c2ccc(OCC(C)(C)C)cc2)n1 (stereo not given) | 0.65 µg/mL (≈ 1.81 µM) | 

Source: ChEMBL document CHEMBL1857833, “Screening and optimization of specific chemical series against human African Trypanosomiasis (HAT)”
